# Data published in patent US20250214996A1, “SALTS AND SOLID FORMS OF AN ESTROGEN RECEPTOR ANTAGONIST” (Olema Pharmaceuticals, Inc., priority 2022, published 2025).
# Experiments:
# Type in all cases: physicochemical
# [1] = Water solubility at RT, 24 hours, HPLC/pH/XRPD
# Protocol: The HPLC method used for solubility measurements is summarized below:
# Water solubility was measured in water at RT to evaluate solubility and disproportionation risk. […] After centrifugation, supernatants were collected for HPLC and pH tests, and wet cakes were collected for XRPD characterization.
# [2] = Slurry in isopropanol for 1 day (XRPD)
# [3] = Stability in oven at 60° C. for two weeks
# Protocol: Amorphous Compound 1, Compound 1 Fumarate Form E, and Compound 1 Fumarate Form A Anhydrate were placed in an oven at 60° C. for two weeks to evaluate their stability.
# [4] = Competitive slurry of Fumarate Form E and Fumarate Form A Anhydrate (XRPD)
# Protocol: Competitive slurry experiments were performed with Compound 1 Fumarate Form E and Compound 1 Fumarate Form A Anhydrate, as follows:
# Experiment #1: Compound 1 Fumarate Form E (100 mg), Compound 1 Fumarate Form A Anhydrate (100 mg), and isopropanol (2 mL) were added into two 8-mL vials and mixed well in a shaker at 25° C. and 40° C., respectively. Samples for analysis were taken at 24 h and 72 h.
# Experiment #2: Compound 1 Fumarate Form E (100 mg), Compound 1 Fumarate Form A Anhydrate (100 mg), and water (2 mL) were added into two 8-mL vials and mixed well in a shaker at 25° C. and 40° C., respectively. Samples for analysis were taken at 24 h and 72 h.
# Experiment #3: Compound 1 Fumarate Form E (100 mg), Compound 1 Fumarate Form A Anhydrate (100 mg), and ethyl acetate (2 mL) were added into two 8-mL vials and mixed well in a shaker at 25° C. and 40° C., respectively. Samples for analysis were taken at 24 h and 72 h.
# [5] = Dynamic vapor sorption (DVS) hygroscopicity
# Protocol: Dynamic Vapor Sorption (DVS) was measured by a SMS (Surface Measurement Systems) DVS Intrinsic. Parameters for DVS test are listed below:
# Alternatively, DVS was performed using Intrinsic DVS ([…], UK). About 30-50 mg of sample was placed in a sample basked and hung in the measuring chamber. For an isotherm test, the chamber temperature is maintained by a water bath at a constant 25±1° C. The sample was tested at a targeted RH from 0 to 90% full cycle in step mode. The analysis was performed in 10% RH increments. Time duration at each RH was set as 60 min so that the sample could reach equilibrium with the chamber environment. Data were collected in 20 s increments.
# A DVS isotherm plot was collected at 25° C. to investigate the solid form stability as a function of humidity. For Compound 1 Fumarate Form A Anhydrate, solids were pre-equilibrated at 0% RH to remove the unbounded solvent or water before the hygroscopicity experiment was started.
# [6] = Solubility by gravimetric method; details: H2O, 25° C.
# Protocol: Solubility studies of Compound 1 and Compound 1 Fumarate in different solvents at 25° C. were performed. Solubility was measured by the dynamic method and gravimetric method.
# Gravimetric method: Excess solids and a certain amount of solvent were added 8 mL vials, stirred for 24 hours, and filtered.
smiles,measurement,setting,value
CCCN1CC(Oc2ccc([C@@H]3c4[nH]c5ccccc5c4C[C@@H](C)N3CC(C)(C)F)cc2)C1.O=C(O)/C=C/C(=O)O [Compound 1 Fumarate Form A Anhydrate],Purity,[1]; HPLC after 24 hours in water at RT,~100%
same,pH,[1]; supernatant after 24 hours in water at RT,5.24
same,Solubility in Water,"[1]; water, RT, 24 hours, stirring at 400 rpm",2230 µg/mL
same,Form Change after 24 h?,[1]; wet cake XRPD after 24 hours in water at RT,No
same,form after slurrying (XRPD),[2],No change in form
same,HPLC Purity (%) Starting,[3]; before storage,99.58%
same,XRPD,[3]; form after oven at 60° C. for two weeks,No change
same,HPLC Purity (%) 60° C.,[3]; oven at 60° C. for two weeks,99.54%
same,HPLC Purity (%) Degradation,[3]; oven at 60° C. for two weeks,−0.04%
same,stability relative to Amorphous Compound 1,[3]; oven at 60° C. for two weeks,improved stability
same,competitive slurry outcome (XRPD),"[4]; ethyl acetate, 72 h at 25° C. or 40° C.",a mixture of Compound 1 Fumarate Form E and Compound 1 Fumarate Form A Anhydrate remained
same,competitive slurry outcome (XRPD),"[4]; isopropanol, 24 h at 25° C. or 40° C.",completely transformed into Compound 1 Fumarate Form E
same,competitive slurry outcome (XRPD),"[4]; water, 72 h at 25° C. or 40° C.",a mixture of Compound 1 Fumarate Form E and Compound 1 Fumarate Form A Anhydrate remained
same,hygroscopicity by DVS,[5]; DVS,non-hygroscopic
same,water uptake up to 80% RH,[5]; DVS isotherm at 25° C.,less than 0.20%
same,Form Change after DVS?,[5]; XRPD before and after DVS,No
same,Hygroscopicity (%)* (class),[5]; based on water uptake at 25° C./80% RH,Non-hygroscopic
same,Hygroscopicity (%)* (water uptake),[5]; water uptake at 25° C./80% RH,(0.108) %
same,Solubility,[6],6500 µg/mL
